These results are taken from PMC10146957, “Systematic Studies on Anti-Cancer Evaluation of Stilbene and Dibenzo[b,f]oxepine Derivatives” (Molecules, 2023).

Details of series [1]: method as in PMID 29318022. As to conditions: generally well tolerated; cited from earlier work.
In another series the test system is HEK293 cells. Nature of the series: MTT cytotoxicity assay, HEK293 cells. Type of series: cell-based. As to conditions: Homo sapiens, 48 h, mean ± SEM. The protocol:
(§1) Cells were cultured in a humidified incubator at 37 °C under 5% CO2. Human colorectal carcinoma (HCT116) cells were grown in McCoy’s 5A Medium (ATCC, Catalog No. 30-2007), human breast adenocarcinoma (MCF-7) and human dermal fibroblasts (HDF-A) cells were maintained in Dulbecco’s Modified Eagle’s Medium (DMEM, Sigma D5546) supplemented with 2 mM L-glutamine. Human embryonic kidney (HEK293) cell line was cultured in Dulbecco’s Modified Eagle’s Medium (DMEM, Gibco 31966-021). All culture media were supplemented with 1% Penicillin-Streptomycin (Sigma-Aldrich, P4333) and 10% fetal bovine serum (Gibco, 10270-106). Cells were sub-cultured at approximately 80–90% confluency to maintain the culture in the logarithmic growth phase.
(§2) Cells were seeded at a 96-well plate at the density of 7 × 10^3 cells per well and allowed to grow for 24 h. Afterward, the medium was aspirated and fresh medium was added (200 μL) with serial dilutions (100 − 10 μM) of tested compounds or DMSO at corresponding concentrations as a control. Following 48 h of incubation, the medium was replaced with phenol red-free medium (100 μL) containing MTT (3-(4,5-dimethylthiazol-2-yl)-2,5-diphenyl-2H-tetrazolium bromide, 0.5 mg/mL) and replaced in the incubator for 4 h. The formed formazan was dissolved in DMSO (100 μL) followed by incubation of the mixture at 37 °C for 10 min. The absorbance was measured at 540 nm. After blank subtraction, the half maximal effective concentration (EC50) was calculated by GraphPad Prism software (GraphPad Software Inc, San Diego, CA, USA).
For orientation: Tetrazolium dyes change colour on reduction, which living cells bring about.

The subject of a further series is MCF-7 cells. Nature of the series: MTT cytotoxicity assay, MCF-7 cells. The series is classed as cell-based. The note with it: Homo sapiens, MCF7, 48 h, mean ± SEM. The protocol:
as §1, §2

The next series concerns HDF-A cells. Briefly: MTT cytotoxicity assay, HDF-A cells. Type of series: cell-based. The note with it: Homo sapiens, HDFa. On the procedure:
as §1, §2

Series [2] in a line: MTT cytotoxicity assay, HCT116 cells. The note with it: human, HCT116 cells (human colorectal carcinoma), 100 μM, 48 h of treatment, read-out: cell viability. The series is classed as cell-based, human. The protocol:
as §1, §2

In series [3] the test system is HCT116 cells. Nature of the series: MTT cytotoxicity assay, HCT116 cells. The series is classed as cell-based, human. As to conditions: for IC50: Homo sapiens, HCT-116, 48 h, mean ± SEM; for cell viability (in words): 100 μM, 48 h of treatment. The protocol: as §1, §2
The subject of series [4] is HCT116 cells. Nature of the series: Immunofluorescence of microtubular network (anti-α-tubulin 12G10). Type of series: cell-based, human. As to conditions: 60 µm of compound, 24 h, anti-α-tubulin staining. The protocol: Cells were seeded on coverslips at a 24-well plate at a density of 5 × 10^4 cells per well and allowed to grow overnight. Next medium was replaced with a medium containing 60 μM solution of the selected compound and incubated for 24 h. Then, cells were fixed and permeabilized with 100% methanol at −20 °C for 15 min and subsequently washed three times with PBS at room temperature. After 1 h blocking with 3% BSA/PBS at 4 °C, slides were incubated with anti-alpha-tubulin 12G10 primary antibody (Developmental Studies Hybridoma Bank, University of Iowa, Iowa City, IA, USA) (diluted to 2 µg/mL in 3% BSA/PBS) overnight at 4 °C. After 3 × 10 min washing with PBS, slides were incubated with AlexaFluor 555-conjugated secondary antibody (diluted to 50 ng/mL in 3% BSA/PBS) (Thermo Fisher Scientific, Waltham, MA, USA, A31570) for 1 h at room temperature. After washing (3 × 10 min with PBS), slides were mounted in Fluoromount-G (Southern Biotech., Birmingham, AL, USA). Cells were recorded using Leica TCS SP8 (Leica Microsystems, Wetzlar, Germany) confocal microscope.

Series [5] concerns HeLa (cervical cancer) cells. Also on record: method as in PMID 31865147. As to conditions: cited from earlier work.
A further series concerns normal cell lines. Also on record: method as in PMID 31865147. As to conditions: cited from earlier work.
In a further series the test system is U87 (glioblastoma) cells. On the set-up: method as in PMID 31865147. The note with it: cited from earlier work.
[6] abbreviates: MTT, 48 h, mean ± SEM, read-out: HDF-A IC50.

Molecules are shown by their SMILES. Like-named read-outs stand apart in the source and are kept apart here.

Turning to `COc1cccc(O)c1/C=C/c1ccc([N+](=O)[O-])cc1[N+](=O)[O-]`, the melting point (in general, the temperature, or range, at which the solid turns liquid) stood at 212 °C.
`O=[N+]([O-])c1ccc2c(c1)C=Cc1ccc([N+](=O)[O-])cc1O2`: the melting point amounted to 216 °C.
For the compound `COc1ccc(/C=C\c2cc(OC)c(OC)c(OC)c2)cc1OP(=O)(O)O` [CA4P/fosbretabulin, combretastatin A-4 phosphate], in [1], the side effect result is listed as “acute but transient hypertension”.
Compound `O=[N+]([O-])c1ccc(/C=C/c2ccccc2O)c([N+](=O)[O-])c1` [Compound 1a, (E)-2-hydroxy-2′,4′-dinitrostilbene] had a melting point of 192 °C. Besides, the IC50 – broadly, the midpoint of a concentration-inhibition curve – in the series on HEK293 cells came out at 18 ± 1 µM. Further, the half-maximal inhibitory concentration (IC50) in the series on MCF-7 cells came out at 36 ± 2 µM. The IC50 with HDF-A cells (setting [6]) was 38 ± 1 µM. Besides, in series [2], the viability (in general, a read-out of living cells in per cent, often relative to untreated cells) at 48 h, 100 µM is below 30%. Further, the IC50 in the series on HCT116 cells [3] was determined as 23 ± 1 µM.
`COc1cccc(/C=C/c2ccc([N+](=O)[O-])cc2[N+](=O)[O-])c1O` [Compound 1b, (E)-2-hydroxy-3-methoxy-2′,4′-dinitrostilbene]: the melting point stood at 182 °C. Besides, the “cell viability (in words)” value in the series with HCT116 cells [3] is listed as “only minimally affected”.
Turning to `COc1ccc(/C=C/c2ccc([N+](=O)[O-])cc2[N+](=O)[O-])c(O)c1` [Compound 1c, (E)-2-hydroxy-4-methoxy-2′,4′-dinitrostilbene], the IC50 with HEK293 cells is 34 ± 4 µM; in the series on MCF-7 cells it was 43 ± 2 µM; with HDF-A cells (setting [6]), 40 ± 4 µM; with HCT116 cells [3], 38 ± 5 µM. In addition, the viability at 48 h, 100 µM in series [2] is below 30%.
`COc1ccc(O)c(/C=C/c2ccc([N+](=O)[O-])cc2[N+](=O)[O-])c1` [Compound 1d, (E)-2-hydroxy-5-methoxy-2′,4′-dinitrostilbene] came in with a melting point of 168 °C. For the same compound, in the series on HEK293 cells, the IC50 is 33 ± 2 µM. Besides, the “effect on microtubular network” value in the series on HCT116 cells [4] was “density of the microtubular network was decreased”. In the series on MCF-7 cells, half-maximal inhibition (IC50) was put at 47 ± 1 µM. Further, the IC50 with HDF-A cells (setting [6]) is 40 ± 2 µM. Further, the viability at 48 h, 100 µM in [2] was below 30%. This compound also yielded an IC50 in the series on HCT116 cells [3] of 18 ± 3 µM.
Compound `COc1cc(O)c(/C=C/c2ccc([N+](=O)[O-])cc2[N+](=O)[O-])cc1OC` [Compound 1f, (E)-2-hydroxy-4,5-dimethoxy-2′,4′-dinitrostilbene] had a melting point of 221 °C. Also, the “cell viability (in words)” value with HCT116 cells [3] is “only minimally affected”.
Take `O=[N+]([O-])c1ccc(/C=C/c2ccc(O)cc2O)c([N+](=O)[O-])c1` [Compound 1i, (E)-2,4-dihydroxy-2′,4′-dinitrostilbene]: the melting point stood at 201 °C. Also, in the series on HEK293 cells, half-maximal inhibition (IC50) was put at 54 ± 2 µM. The compound also had an IC50 with MCF-7 cells of 69 ± 3 µM. Besides, in the series with HDF-A cells (setting [6]), the IC50 came to 41 ± 2 µM. Also, the viability at 48 h, 100 µM in series [2] is below 30%. The compound further showed an IC50 with HCT116 cells [3] of 52 ± 2 µM.
`O=[N+]([O-])c1ccc2c(c1)Oc1ccccc1C=C2` [Compound 2a, 3-nitrodibenzo[b,f]oxepine] had a melting point of 156 °C.
In the case of `COc1cccc2c1Oc1cc([N+](=O)[O-])ccc1C=C2` [Compound 2b, 6-methoxy-3-nitrodibenzo[b,f]oxepine], the melting point turned out to be 184 °C. Moreover, the “cell viability (in words)” value in the series on HCT116 cells [3] is given as “only minimally affected”.
In turn, `COc1ccc2c(c1)Oc1cc([N+](=O)[O-])ccc1C=C2` [Compound 2c, 3-methoxy-7-nitrodibenzo[b,f]oxepine] returned a melting point of 189 °C.
Same read-out and setting: under `COc1ccc2c(c1)C=Cc1ccc([N+](=O)[O-])cc1O2` [Compound 2d, 2-methoxy-7-nitrodibenzo[b,f]oxepine] stands 167 °C.
On to `COc1cc2c(cc1OC)Oc1cc([N+](=O)[O-])ccc1C=C2` [Compound 2f, 2,3-dimethoxy-7-nitrodibenzo[b,f]oxepine], for which, in the series with HCT116 cells [3], the “cell viability (in words)” value was “only minimally affected”.
Turning to `O=[N+]([O-])c1ccc2c(c1)Oc1ccc3ccccc3c1C=C2` [Compound 2h, 9-nitrobenzo[b]naphtho[1,2-f]oxepine], the melting point was found to be 197 °C. For the same compound, the “anti-cancer activity compared with HTC116 cells” value in series [5] is “significantly more active”. The “activity in normal cell lines” value in the series with normal cell lines is on record as “severe activity”. Moreover, the “anti-cancer activity compared with HTC116 cells” value in the series with U87 (glioblastoma) cells was “significantly more active”.
As to `O=[N+]([O-])c1ccc2c(c1)Oc1cc(O)ccc1C=C2` [Compound 2i, 7-nitrodibenzo[b,f]oxepin-3-ol], the melting point was found to be 164 °C. Besides, half-maximal inhibition in the series with HEK293 cells (IC50) required 88 ± 5 µM. In the series with MCF-7 cells, this compound gave an IC50 of 67 ± 6 µM. Further, the IC50 in the series on HDF-A cells (setting [6]) was found to be 93 ± 7 µM. In addition, the viability at 48 h, 100 µM in series [2] was below 30%. This compound registered an IC50 in the series with HCT116 cells [3] of 55 ± 4 µM.
Compound `CC(=O)Oc1ccc2c(c1)Oc1cc([N+](=O)[O-])ccc1C=C2` [Compound 2j, 7-nitrodibenzo[b,f]oxepin-3-yl acetate] gave a melting point of 133 °C. The IC50 in the series on HEK293 cells worked out at 85 ± 4 µM. The compound also gave an IC50 with MCF-7 cells of 36 ± 3 µM. Also, in series [2], the viability at 48 h, 100 µM was below 30%. In the series on HCT116 cells [3], half-maximal inhibition (IC50) was put at 53 ± 3 µM.
Turning to `COc1cccc2c1Oc1cc(N)ccc1C=C2` [Compound 3b, 6-methoxydibenzo[b,f]oxepin-3-amine], the “cell viability (in words)” value in the series on HCT116 cells [3] is listed as “only minimally affected”.
Compound `COc1ccc2c(c1)C=Cc1ccc(N)cc1O2` [Compound 3d, 8-methoxydibenzo[b,f]oxepin-3-amine] showed a melting point of 158 °C.
In the case of `COc1cc2c(cc1OC)Oc1cc(N)ccc1C=C2` [Compound 3f, 7,8-dimethoxydibenzo[b,f]oxepin-3-amine], in the series on HCT116 cells [3], the “cell viability (in words)” value is “only minimally affected”.
Compound `Nc1ccc2c(c1)Oc1ccc3ccccc3c1C=C2` [Compound 3h, benzo[b]naphtho[1,2-f]oxepin-9-amine] came in with a melting point of 172 °C. Further, it took 48 ± 3 µM to reach half-maximal inhibition in the series with HEK293 cells (IC50). The IC50 with HDF-A cells (predicted IC50, above the maximum concentration tested (100 μM), read-out: HDF-A IC50 (predicted)) is above 100 µM. For the same compound, the viability at 48 h, 100 µM in series [2] was below 30%. The compound further registered an IC50 in the series on HCT116 cells [3] of 66 ± 2 µM.
For the compound `CC(=O)Oc1ccc2c(c1)Oc1cc(N)ccc1C=C2` [Compound 3j, 7-aminodibenzo[b,f]oxepin-3-yl acetate], the melting point is 145 °C.
